# Measured values reported in ChEMBL document CHEMBL4138123, “Design, synthesis and biological evaluation of novel pyrazolochalcones as potential modulators of PI3K/Akt/mTOR pathway and inducers of apoptosis in breast cancer cells” (Eur J Med Chem, 2017).
# How the values were obtained:
# Assay type in all cases: functional
# CCRF-CEM = assay: Cytotoxicity against human CCRF-CEM cells assessed as growth inhibition after 48 hrs by sulforhodamine B assay
# K562 = assay: Cytotoxicity against human K562 cells assessed as growth inhibition after 48 hrs by sulforhodamine B assay; conditions: K562, 48 h
# IGROV-1 [1] = assay: Cytotoxicity against human IGROV1 cells assessed as growth inhibition after 48 hrs by sulforhodamine B assay; conditions: IGROV-1, 48 h
# OVCAR-3 [2] = assay: Cytotoxicity against human OVCAR3 cells assessed as growth inhibition after 48 hrs by sulforhodamine B assay; conditions: OVCAR-3, 48 h
# OVCAR-4 [3] = assay: Cytotoxicity against human OVCAR4 cells assessed as growth inhibition after 48 hrs by sulforhodamine B assay; conditions: OVCAR-4, 48 h
# Hs-578T [4] = assay: Cytotoxicity against human Hs 578T cells assessed as growth inhibition after 48 hrs by sulforhodamine B assay
# SK-OV-3 [5] = assay: Cytotoxicity against human SKOV3 cells assessed as cell growth at 0.01 uM after 48 hrs by sulforhodamine B assay relative to control; conditions: SK-OV-3, 48 h, read-out: Activity
# OVCAR-8 [6] = assay: Cytotoxicity against human OVCAR8 cells assessed as cell growth at 0.01 uM after 48 hrs by sulforhodamine B assay relative to control; conditions: OVCAR-8, 48 h, read-out: Activity
# SR = assay: Cytotoxicity against human SR cells assessed as cell growth at 0.01 uM after 48 hrs by sulforhodamine B assay relative to control; conditions: read-out: Activity
# Hs-578T [7] = assay: Cytotoxicity against human Hs 578T cells assessed as cell growth at 0.01 uM after 48 hrs by sulforhodamine B assay relative to control; conditions: read-out: Activity
# COLO 205 = assay: Cytotoxicity against human COLO205 cells assessed as cell growth at 0.1 uM after 48 hrs by sulforhodamine B assay relative to control; conditions: COLO 205, 48 h, read-out: Activity
# SNB-19 = assay: Cytotoxicity against human SNB19 cells assessed as cell growth at 0.1 uM after 48 hrs by sulforhodamine B assay relative to control; conditions: SNB-19, 48 h, read-out: Activity
# MDA-MB-435 [8] = assay: Cytotoxicity against human MDA-MB-435 cells assessed as cell growth at 0.1 uM after 48 hrs by sulforhodamine B assay relative to control; conditions: MDA-MB-435, 48 h, read-out: Activity
# IGROV-1 [9] = assay: Cytotoxicity against human IGROV1 cells assessed as cell growth at 0.1 uM after 48 hrs by sulforhodamine B assay relative to control; conditions: IGROV-1, 48 h, read-out: Activity
# OVCAR-4 [10] = assay: Cytotoxicity against human OVCAR4 cells assessed as cell growth at 0.1 uM after 48 hrs by sulforhodamine B assay relative to control; conditions: OVCAR-4, 48 h, read-out: Activity
# MDA-MB-231 = assay: Cytotoxicity against human MDA-MB-231 cells assessed as cell growth at 0.1 uM after 48 hrs by sulforhodamine B assay relative to control; conditions: MDA-MB-231, 48 h, read-out: Activity
# UACC-62 [11] = assay: Cytotoxicity against human UACC62 cells assessed as cell growth at 1 uM after 48 hrs by sulforhodamine B assay relative to control; conditions: UACC-62, 48 h, read-out: Activity
# OVCAR-4 [12] = assay: Cytotoxicity against human OVCAR4 cells assessed as cell growth at 1 uM after 48 hrs by sulforhodamine B assay relative to control; conditions: OVCAR-4, 48 h, read-out: Activity
# TK-10 = assay: Cytotoxicity against human TK10 cells assessed as cell growth at 1 uM after 48 hrs by sulforhodamine B assay relative to control; conditions: TK-10, 48 h, read-out: Activity
# UO-31 = assay: Cytotoxicity against human UO31 cells assessed as cell growth at 1 uM after 48 hrs by sulforhodamine B assay relative to control; conditions: UO-31, 48 h, read-out: Activity
# NCI-H23 = assay: Cytotoxicity against human NCI-H23 cells assessed as cell growth at 10 uM after 48 hrs by sulforhodamine B assay relative to control; conditions: NCI-H23, 48 h, read-out: Activity
# NCI-H460 = assay: Cytotoxicity against human NCI-H460 cells assessed as cell growth at 10 uM after 48 hrs by sulforhodamine B assay relative to control; conditions: NCI-H460, 48 h, read-out: Activity
# HT-29 = assay: Cytotoxicity against human HT-29 cells assessed as cell growth at 10 uM after 48 hrs by sulforhodamine B assay relative to control; conditions: HT-29, 48 h, read-out: Activity
# SW-620 = assay: Cytotoxicity against human SW620 cells assessed as cell growth at 10 uM after 48 hrs by sulforhodamine B assay relative to control; conditions: SW-620, 48 h, read-out: Activity
# M14 = assay: Cytotoxicity against human M14 cells assessed as cell growth at 10 uM after 48 hrs by sulforhodamine B assay relative to control; conditions: M14, 48 h, read-out: Activity
# MDA-MB-435 [13] = assay: Cytotoxicity against human MDA-MB-435 cells assessed as cell growth at 10 uM after 48 hrs by sulforhodamine B assay relative to control; conditions: MDA-MB-435, 48 h, read-out: Activity
# UACC-62 [14] = assay: Cytotoxicity against human UACC62 cells assessed as cell growth at 10 uM after 48 hrs by sulforhodamine B assay relative to control; conditions: UACC-62, 48 h, read-out: Activity
# OVCAR-8 [15] = assay: Cytotoxicity against human OVCAR8 cells assessed as cell growth at 10 uM after 48 hrs by sulforhodamine B assay relative to control; conditions: OVCAR-8, 48 h, read-out: Activity
# NCI/ADR-RES = assay: Cytotoxicity against human NCI/ADR-RES cells assessed as cell growth at 10 uM after 48 hrs by sulforhodamine B assay relative to control; conditions: read-out: Activity
# SN12C = assay: Cytotoxicity against human SN12C cells assessed as cell growth at 10 uM after 48 hrs by sulforhodamine B assay relative to control; conditions: read-out: Activity
# HCC 2998 = assay: Cytotoxicity against human HCC2998 cells assessed as cell growth at 100 uM after 48 hrs by sulforhodamine B assay relative to control; conditions: HCC 2998, 48 h, read-out: Activity
# OVCAR-3 [16] = assay: Cytotoxicity against human OVCAR3 cells assessed as cell growth at 100 uM after 48 hrs by sulforhodamine B assay relative to control; conditions: OVCAR-3, 48 h, read-out: Activity
# SK-OV-3 [17] = assay: Cytotoxicity against human SKOV3 cells assessed as cell growth at 100 uM after 48 hrs by sulforhodamine B assay relative to control; conditions: SK-OV-3, 48 h, read-out: Activity
# RXF 393 = assay: Cytotoxicity against human RXF393 cells assessed as cell growth at 100 uM after 48 hrs by sulforhodamine B assay relative to control; conditions: RXF 393, 48 h, read-out: Activity
# BT-549 = assay: Cytotoxicity against human BT549 cells assessed as cell growth at 100 uM after 48 hrs by sulforhodamine B assay relative to control; conditions: BT-549, 48 h, read-out: Activity
# T47D = assay: Cytotoxicity against human T47D cells assessed as cell growth at 100 uM after 48 hrs by sulforhodamine B assay relative to control; conditions: read-out: Activity
structure (smiles),measurement,setting,value
COc1ccc(C(=O)/C=C/c2cc(-c3cc(OC)c(OC)c(OC)c3)n[nH]2)cc1OC,LC50 (concentration killing 50% of cells),CCRF-CEM,> 100 µM
same,TGI,CCRF-CEM,3.93 µM
same,LC50 (concentration killing 50% of cells),K562,> 100 µM
same,TGI,K562,7.12 µM
same,LC50,IGROV-1 [1],6.48 µM
same,TGI,IGROV-1 [1],3.41 µM
same,LC50,OVCAR-3 [2],5.97 µM
same,TGI,OVCAR-3 [2],3.17 µM
same,LC50,OVCAR-4 [3],49.9 µM
same,TGI,OVCAR-4 [3],16.6 µM
same,LC50,Hs-578T [4],> 100 µM
same,TGI,Hs-578T [4],8.2 µM
same,growth at 0.01 µM,SK-OV-3 [5],100%
same,growth at 0.01 µM,OVCAR-8 [6],97%
same,growth at 0.01 µM,SR,100%
same,growth at 0.01 µM,Hs-578T [7],98%
same,growth at 0.1 µM,COLO 205,106%
same,growth at 0.1 µM,SNB-19,93%
same,growth at 0.1 µM,MDA-MB-435 [8],92%
same,growth at 0.1 µM,IGROV-1 [9],96%
same,growth at 0.1 µM,OVCAR-4 [10],96%
same,growth at 0.1 µM,MDA-MB-231,101%
same,growth at 1 µM,UACC-62 [11],95%
same,growth at 1 µM,OVCAR-4 [12],70%
same,growth at 1 µM,TK-10,71%
same,growth at 1 µM,UO-31,67%
same,growth at 10 µM,NCI-H23,-36%
same,growth at 10 µM,NCI-H460,-64%
same,growth at 10 µM,HT-29,-94%
same,growth at 10 µM,SW-620,-77%
same,growth at 10 µM,M14,-72%
same,growth at 10 µM,MDA-MB-435 [13],-92%
same,growth at 10 µM,UACC-62 [14],-92%
same,growth at 10 µM,OVCAR-8 [15],-89%
same,growth at 10 µM,NCI/ADR-RES,10%
same,growth at 10 µM,SN12C,-82%
same,growth at 100 µM,HCC 2998,-86%
same,growth at 100 µM,OVCAR-3 [16],-84%
same,growth at 100 µM,SK-OV-3 [17],-98%
same,growth at 100 µM,RXF 393,-98%
same,growth at 100 µM,BT-549,-75%
same,growth at 100 µM,T47D,-46%
COc1ccc(-c2cc(/C=C/C(=O)c3cc(OC)c(OC)c(OC)c3)[nH]n2)cc1OC,GI50,CCRF-CEM,0.34 µM
same,LC50 (concentration killing 50% of cells),CCRF-CEM,> 100 µM
same,TGI,CCRF-CEM,3.13 µM
same,GI50,K562,0.73 µM
same,LC50 (concentration killing 50% of cells),K562,> 100 µM
same,TGI,K562,9.71 µM
same,GI50,IGROV-1 [1],2.72 µM
same,LC50,IGROV-1 [1],46.7 µM
same,TGI,IGROV-1 [1],8.61 µM
same,GI50,OVCAR-3 [2],1.59 µM
same,LC50,OVCAR-3 [2],6.23 µM
same,TGI,OVCAR-3 [2],3.15 µM
same,GI50,OVCAR-4 [3],1.62 µM
same,TGI,OVCAR-4 [3],7.17 µM
same,GI50,Hs-578T [4],2.91 µM
same,LC50,Hs-578T [4],> 100 µM
same,TGI,Hs-578T [4],22.1 µM
same,growth at 0.01 µM,SK-OV-3 [5],97%
same,growth at 0.01 µM,OVCAR-8 [6],100%
same,growth at 0.01 µM,SR,93%
same,growth at 0.01 µM,Hs-578T [7],95%
same,growth at 0.1 µM,COLO 205,89%
same,growth at 0.1 µM,SNB-19,92%
same,growth at 0.1 µM,MDA-MB-435 [8],91%
same,growth at 0.1 µM,IGROV-1 [9],97%
same,growth at 0.1 µM,OVCAR-4 [10],73%
same,growth at 0.1 µM,MDA-MB-231,93%
same,growth at 1 µM,UACC-62 [11],88%
same,growth at 1 µM,OVCAR-4 [12],66%
same,growth at 1 µM,TK-10,96%
same,growth at 1 µM,UO-31,67%
same,growth at 10 µM,NCI-H23,-39%
same,growth at 10 µM,NCI-H460,-41%
same,growth at 10 µM,HT-29,-87%
same,growth at 10 µM,SW-620,-43%
same,growth at 10 µM,M14,-70%
same,growth at 10 µM,MDA-MB-435 [13],-55%
same,growth at 10 µM,UACC-62 [14],-61%
same,growth at 10 µM,OVCAR-8 [15],6%
same,growth at 10 µM,NCI/ADR-RES,9%
same,growth at 10 µM,SN12C,-62%
same,growth at 100 µM,HCC 2998,-82%
same,growth at 100 µM,OVCAR-3 [16],-83%
same,growth at 100 µM,SK-OV-3 [17],-95%
same,growth at 100 µM,RXF 393,-83%
same,growth at 100 µM,BT-549,-93%
same,growth at 100 µM,T47D,-47%
